Results on five molecules are retold here after patent publication US20080171783A1, “COMPOSITIONS AND METHODS FOR TREATING HYPERPROLIFERATIVE DISEASE” (Migenix Inc., priority 2006, published 2008).

One experiment has as its target T1, human polymerase gamma (Homo sapiens, UniProt P54098).
T1 construct: purchased Replizyme Ltd., Heslington, York, UK
T1 sequence (P54098 1-1239): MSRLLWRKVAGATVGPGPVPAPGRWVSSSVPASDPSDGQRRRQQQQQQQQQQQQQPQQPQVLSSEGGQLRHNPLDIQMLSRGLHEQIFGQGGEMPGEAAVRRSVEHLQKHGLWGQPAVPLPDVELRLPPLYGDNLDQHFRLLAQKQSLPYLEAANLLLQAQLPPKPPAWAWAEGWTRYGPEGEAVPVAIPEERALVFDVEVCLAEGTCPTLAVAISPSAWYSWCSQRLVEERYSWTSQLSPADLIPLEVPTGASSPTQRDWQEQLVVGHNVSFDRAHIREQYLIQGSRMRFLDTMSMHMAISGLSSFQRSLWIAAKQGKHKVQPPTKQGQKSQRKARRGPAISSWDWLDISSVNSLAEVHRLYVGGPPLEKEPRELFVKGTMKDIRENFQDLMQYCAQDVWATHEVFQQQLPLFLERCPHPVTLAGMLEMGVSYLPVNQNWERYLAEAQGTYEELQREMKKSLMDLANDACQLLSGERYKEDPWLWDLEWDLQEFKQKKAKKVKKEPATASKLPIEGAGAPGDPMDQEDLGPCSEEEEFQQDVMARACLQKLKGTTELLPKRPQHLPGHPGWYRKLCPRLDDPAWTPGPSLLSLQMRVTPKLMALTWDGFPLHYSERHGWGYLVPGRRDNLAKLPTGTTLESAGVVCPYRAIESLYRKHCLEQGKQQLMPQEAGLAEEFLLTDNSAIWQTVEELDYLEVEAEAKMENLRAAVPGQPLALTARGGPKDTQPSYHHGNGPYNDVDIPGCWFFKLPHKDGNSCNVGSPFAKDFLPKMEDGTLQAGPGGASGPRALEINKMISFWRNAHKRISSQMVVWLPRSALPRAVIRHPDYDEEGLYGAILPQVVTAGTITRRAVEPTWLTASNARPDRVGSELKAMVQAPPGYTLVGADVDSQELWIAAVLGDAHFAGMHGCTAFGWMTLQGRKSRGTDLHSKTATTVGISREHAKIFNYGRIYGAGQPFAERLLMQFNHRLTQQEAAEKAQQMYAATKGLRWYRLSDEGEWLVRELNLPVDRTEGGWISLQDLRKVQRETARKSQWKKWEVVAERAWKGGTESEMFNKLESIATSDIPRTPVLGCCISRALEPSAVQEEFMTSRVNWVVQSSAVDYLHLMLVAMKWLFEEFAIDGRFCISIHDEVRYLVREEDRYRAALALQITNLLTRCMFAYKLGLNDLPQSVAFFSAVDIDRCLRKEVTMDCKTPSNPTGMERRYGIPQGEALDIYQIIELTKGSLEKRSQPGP
The experiment can be described thus: Homotemplate enzymatic assay, polymerase gamma. It counts as biochemical. The note with it: four concentrations, homotemplate format. The protocol: To test for selectivity, an enzymatic assay of activity in human polymerase alpha and human polymerase gamma was performed using a homotemplate assay format (Replizyme Ltd., Heslington, York, UK). The IC50 was measured by testing four different concentrations of a selected compound as compared to an untreated control.

A further experiment has as its target T2, Calf polymerase alpha (Bos taurus, UniProt A0AAA9TD94).
T2 construct: purchased Replizyme Ltd (Heslington, York, UK)
T2 sequence (A0AAA9TD94 1-1441): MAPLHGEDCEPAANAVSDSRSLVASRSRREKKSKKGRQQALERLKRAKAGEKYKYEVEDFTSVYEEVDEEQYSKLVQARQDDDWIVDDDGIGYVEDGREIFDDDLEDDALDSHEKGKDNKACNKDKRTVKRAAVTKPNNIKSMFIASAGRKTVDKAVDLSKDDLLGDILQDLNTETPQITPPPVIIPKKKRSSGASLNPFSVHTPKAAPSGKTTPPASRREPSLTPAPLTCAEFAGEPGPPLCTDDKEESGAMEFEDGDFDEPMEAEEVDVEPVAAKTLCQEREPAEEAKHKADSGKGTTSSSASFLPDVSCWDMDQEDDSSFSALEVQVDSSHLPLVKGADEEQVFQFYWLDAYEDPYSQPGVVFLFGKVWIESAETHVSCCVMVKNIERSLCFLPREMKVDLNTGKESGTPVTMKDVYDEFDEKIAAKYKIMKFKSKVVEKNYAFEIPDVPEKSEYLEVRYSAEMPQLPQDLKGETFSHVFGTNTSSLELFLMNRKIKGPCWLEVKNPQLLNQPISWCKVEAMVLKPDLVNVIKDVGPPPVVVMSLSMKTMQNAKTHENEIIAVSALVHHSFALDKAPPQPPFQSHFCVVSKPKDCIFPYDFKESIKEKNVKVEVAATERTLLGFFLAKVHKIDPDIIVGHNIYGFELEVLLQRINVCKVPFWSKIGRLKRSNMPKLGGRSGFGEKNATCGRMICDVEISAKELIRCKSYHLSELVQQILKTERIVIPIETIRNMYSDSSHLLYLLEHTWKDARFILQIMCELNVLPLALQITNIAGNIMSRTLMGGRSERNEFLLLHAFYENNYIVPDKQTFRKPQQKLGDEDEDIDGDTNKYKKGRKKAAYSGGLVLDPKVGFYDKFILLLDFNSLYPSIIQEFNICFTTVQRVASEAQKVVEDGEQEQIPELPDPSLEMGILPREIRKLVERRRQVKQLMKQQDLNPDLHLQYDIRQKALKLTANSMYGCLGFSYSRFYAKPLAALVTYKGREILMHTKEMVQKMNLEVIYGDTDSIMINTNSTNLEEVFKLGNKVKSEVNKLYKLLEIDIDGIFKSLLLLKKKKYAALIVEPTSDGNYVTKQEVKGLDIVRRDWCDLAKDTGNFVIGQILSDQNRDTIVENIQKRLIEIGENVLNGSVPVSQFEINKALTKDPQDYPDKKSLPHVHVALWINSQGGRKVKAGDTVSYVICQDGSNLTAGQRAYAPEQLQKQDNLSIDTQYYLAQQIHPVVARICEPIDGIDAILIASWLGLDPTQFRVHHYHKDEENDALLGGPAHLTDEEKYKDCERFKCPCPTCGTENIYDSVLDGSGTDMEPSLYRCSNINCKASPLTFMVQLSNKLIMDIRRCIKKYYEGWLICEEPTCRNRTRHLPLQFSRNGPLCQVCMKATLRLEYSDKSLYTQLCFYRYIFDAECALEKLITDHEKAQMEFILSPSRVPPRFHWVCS
The experiment is described as follows: Calf polymerase alpha inhibition (Replizyme kit). To be noted: for inhibition at 10 µM: single point screening; for IC50: dose response. It counts as biochemical. The protocol: Calf polymerase alpha and human polymerase alpha investigations were performed with a kit available from Replizyme Ltd (Heslington, York, UK).

The IC50 is the midpoint of a concentration-inhibition curve. Read a high IC50 as weaker potency in that assay. For orientation: inhibition means how much of the control response was suppressed. High values mean a strong effect, low ones a weak effect. At human polymerase gamma, `Cc1ccc(NC(=O)[C@@H](CCCCN)NC(=O)Nc2ccc3c(c2)Cc2ccccc2-3)cc1` [Compound 173, (R)-6-AMINO-2-[3-(9H-FLUOREN-2-YL)-UREIDO]-HEXANOIC ACID P-TOLYLAMIDE] registered an IC50 of 16 µM. The molecule further gave an inhibition at 10 µM against Calf polymerase alpha of 99%.
As for `COC(=O)c1ccc(COc2ccc(NC(=O)N[C@@H](CCCCN)C(=O)Nc3ccc(C)cc3)cc2)cc1` [Compound 199, (S)-4-{4-[3-(5-AMINO-1-P-TOLYLCARBAMOYL-PENTYL)-UREIDO]-PHENOXYMETHYL}-BENZOIC ACID METHYL ESTER], the IC50 against human polymerase gamma came out at 32 µM. At Calf polymerase alpha, testing at 10 µM gave an inhibition of 39.7% and the half-maximal inhibitory concentration (IC50) was found to be 7.9 µM.
Consider `CC(C)(C)c1ccc(NC(=O)[C@H](CCCCN)NC(=O)OCC2c3ccccc3-c3ccccc32)cc1` [Compound 105, (S)-[5-AMINO-1-(4-TERT-BUTYL-PHENYLCARBAMOYL)-PENTYL]-CARBAMIC ACID 9H-FLUOREN-9-YLMETHYL ESTER], for which the inhibition at 10 µM at Calf polymerase alpha came to 100%.
Take `Cc1cc2cc(NC(=O)[C@H](CCCNC(=O)CN)NC(=O)Nc3ccc4c(c3)Cc3ccccc3-4)ccc2[nH]1` [Compound 297, (S)-5-(2-AMINO-ACETYLAMINO)-2-[3-(9H-FLUOREN-2-YL)-UREIDO]-PENTANOIC ACID (2-METHYL-1H-INDOL-5-YL)-AMIDE]: the IC50 on human polymerase gamma was 13 µM; at Calf polymerase alpha it was 26 µM. The same molecule gave an inhibition at 10 µM at Calf polymerase alpha of 16.5%.
For `Cc1ccc(NC(=O)[C@H](CCCCN)NC(=O)Nc2ccc(OCc3ccccc3)cc2)cc1` [Compound 2, (S)-6-AMINO-2-[3-(4-BENZYLOXY-PHENYL)-UREIDO]-HEXANOIC ACID P-TOLYLAMIDE], the IC50 worked out at 27 µM against human polymerase gamma and 13 µM on Calf polymerase alpha.
